This note sets out measurements from patent US20250157614A1, “SUBSTANCE DELIVERY PLANNING SYSTEM” (Syqe Medical Ltd., priority 2019, published 2025).

The test system of one data set is chronic pain. Briefly: Clinical trial: pain intensity (0-10 point VAS) after single inhalation via metered dose inhaler. Type of data set: in vivo, human (hospitalized adult patients). The source says:
FIG. 5B presents effects of the three different interventions on pain intensity. About 1 VAS point decline in pain intensity was noted during the follow-up period following placebo administration.

A short description of data set [1]: Clinical trial: pharmacokinetic analysis of Δ9-THC plasma levels after single inhalation via metered dose inhaler. As to the method: An objective of the trial was to evaluate the effects of a single inhalation of vaporized ground cannabis doses comprising 0.5 mg or 1 mg THC, as compared to placebo. […] The patients were licensed to use medical cannabis and were guided to refrain from using cannabis at least 12 hours prior to the trial commencement. The patients were guided how to use the inhaler device and signed a written consent.
The trial included three sessions, with an interval of at least 48 hours between sessions. In each of the sessions, a randomized single dose or placebo was delivered to the patients via inhalation. During each session, at a plurality of pre-defined time points, the patients were cognitively tested using “Cambridge Neuropsychological Test Automated Battery”; questioned for assessment of pain (using the VAS); their blood pressure and heartrate were measured; and they were questioned regarding safety parameters, such as feeling “high”, dizziness, mouth dryness. Blood samples were collected at pre-defined time points for performing a pharmacokinetic analysis of THC (being the active substance, in accordance with some embodiments).

[2] abbreviates: 0.5 mg dosage, observed at 120 minutes following inhalation.
Where [3] appears, read: 1 mg dosage, observed at 60 minutes following inhalation.
Where [4] appears, read: single inhalation of 0.5 mg Δ9-THC.
Setting [5] is: single inhalation of 1 mg Δ9-THC.

Molecules are shown by their SMILES.

As for `CCCCCc1cc(O)c2c(c1)OC(C)(C)[C@@H]1CCC(C)=C[C@@H]21` [Δ9-THC, Δ9-tetrahydrocannabinol], in the data set with chronic pain (setting [2]), the “maximum change in VAS pain score” value is reported as 1.95 points and the “maximum change in VAS pain score (percent)” value amounted to 24%. Besides, the “decline in pain intensity compared to placebo” value with chronic pain (0.5 mg Δ9-THC dose, follow-up period) is “greater decline in pain intensity”. Besides, in the data set with chronic pain (setting [3]), the “maximum change in VAS pain score” value was determined as 2.95 points and the “maximum change in VAS pain score (percent)” value is 39.4%. Besides, in the data set with chronic pain (1 mg dose, 15 minutes after inhalation and onward, RM-ANOVA p=0.0015 vs placebo, p=0.0058 vs 0.5 mg), the “reduction in VAS compared to placebo (0 mg) and 0.5 mg” value is on record as “statistically significantly larger”. Further, in data set [1] (setting [4]), the “mean area under the curve of plasma concentration vs. time from 0 to infinity (AUC0→infinity)” value turned out to be 300 ± 144 ng/min/mL and the “time upon which maximum plasma concentration was reached (Tmax)” value was found to be 3.7 ± 1.4 min. For the same compound, in data set [1] (single inhalation of 0.5 mg Δ9-THC, vaporized ground cannabis, 22 of 27 patients analysed), the “mean maximum plasma Δ9-THC concentration (Cmax) ±SD” value is 14.3 ± 7.7 ng/mL. In data set [1] (setting [5]), the AUC0→infinity amounted to 769 ± 331 ng/min/mL, the “Cmax ±SD” value was found to be 33.8 ± 25.7 ng/mL and the Tmax amounted to 4.4 ± 2.1 min.
